# From US8703812B2, “Protein synthesis required for long-term memory is induced by PKC activation on days preceding associative learning” (Blanchette Rockefeller Neurosciences Institute, priority 2005, dated 2014)
# Legend:
# Hermissenda Crassicornis = experiment: Pavlovian conditioning of Hermissenda (retention of conditioned response); format: in vivo; conditions: for effect on bryostatin memory enhancement: 6 TE with bryostatin; for effect on long-term retention: anisomycin 1 μg/ml for four hours post-training (2 TE) after three-day bryostatin treatment
# Method: Bryostatin exposure—Specimens of Hermissenda Crassicornis were maintained in artificial sea water (ASW) at 15° for three days in perforated 50-ml conical centrifuge tubes before starting experiments. Bryostatin, purified from the marine bryozoan Bugula neritina, was dissolved in EtOH and diluted to its final concentration in ASW. […] For selected experiments lactacysteine (10 μM) or anisomycin was added to the ASW.
# Bryostatin effects on Hermissenda behavior and biochemistry were produced by adding the drug to the bathing medium within an 8 cm long, 1 cm diameter test tube housing each individual animal.
# Pavlovian conditioning of Hermissenda involves repeated pairings of a neutral stimulus, light, with an unconditioned stimulus, orbital shaking. (See, Lederhendler et al. (24) and Epstein et al. (6)). A rotation/shaking stimulus excites the statocyst hair cells and thereby elicits an unconditioned response: a brisk contraction of the muscular undersurface called a foot, accompanied by adherence or “clinging” to the surface that supports the foot. Before conditioning, light elicits a weakly positive phototaxis accompanied by lengthening of the foot. After sufficient light-rotation pairings, light no longer elicits phototaxis, but instead elicits a new response (24): the “clinging” and foot shortening previously elicited only by the unconditional stimulus (FIG. 1). Thus, the meaning of the unconditioned stimulus, rotation or orbital shaking, has been transferred to the conditioned stimulus and is manifested by a light-elicited foot contraction—a negative change of foot length. This conditioned response to light can last for weeks, is not produced by randomized light and rotation, is stimulus-specific, and shares the other defining characteristics of mammalian Pavlovian Conditioning.
# Pavlovian conditioning of Hermissenda has well-defined training parameters that produce progressively longer-lasting retention of the learned conditioned response. Two training events (2 TE) of paired light and orbital shaking (see “Methods”), for example, induce a learned conditioned response (light-elicited foot contraction or shortening) that persists without drug treatment for approximately 7 minutes. Four to six training events (4-6 TE) induce a conditioned response that persists up to several hours, but disappears approximately by 1 day after training. Nine TE produces long-term associative memory lasting many days and often up to two weeks.
# PKC-α = conditions: 20 μM-5 QμM Lactacysteine; cited from earlier work
# calexcitin = experiment: Calexcitin immunostaining in B-photoreceptors; format: in vivo, Hermissenda
# Method: Following experimental treatments and testing, animals were rapidly decapitated, the central nervous systems (CNS) removed and then fixed in 4% para-formaldehyde in 20 mM Tris-buffered (pH 8) natural seawater (NSW; 0.2 μm micropore-filtered). The CNSs were then embedded in polyester wax (20), sectioned (6 μm) and immunostained using a biotinylated secondary antibody coupled to avidin-bound microperoxidase (ABC method, Vector), Aminoethylcarbazole (AEC) was used as the chromogen. The primary polyclonal antibody (designated 25U2) was raised in rabbits from the full length calexcitin protein extracted from squid optic lobes. Gray-scale intensity measures were done from digital photomicrographs on circumscribed cytoplasmic areas of the B-photoreceptors minus the same background area (non-staining neuropile).
# [1] = test system: Rat hippocampal H19-7/IGF-IR cells; experiment: Protein synthesis by [35S]Methionine incorporation; format: cell-based; conditions: PKC inhibitor Ro-32 also present
# Method: FIG. 17 depicts the effects of bryostatin on protein synthesis. Rat IGF-IR cells were incubated for 30 minutes with 0.28 nM bryostatin for incubation times ranging from 1 to 79 hours. [^35S]Methionine (9.1 μCi) was then added to the medium followed by analysis of radiolabel.
# Rat hippocampal H19-7/IGF-IR cells (ATCC) were plated onto poly-L-lysine coated plates and grown at 35° in DMEM/10% FCS for several days until approx. 50% coverage was obtained. The cells were then induced to differentiate into a neuronal phenotype by replacing the medium with 5 ml N2 medium containing 10 ng/ml basic fibroblast growth factor and grown in T-25 flasks at 39° C. (26). Various concentrations of bryostatin (0.01-1.0 nM) were then added in 10 μl aqueous solution. After a specified interval, the medium was removed and the cells were washed with PBS, removed by gentle scraping, and collected by centrifugation at 1000 rpm for 5 min.
# In fact, we found here that a single 30-minute exposure to 0.28 nM bryostatin increased overall protein synthesis (FIG. 17), measured by incorporation of ^35-S Methionine in the last ½ hour before collecting the neurons, by 20% within 24 h, increasing to 60% by 79 hours after the bryostatin exposure.
# PKC = experiment: Protein kinase C assay (histone phosphorylation) in Hermissenda nervous systems; format: in vivo; conditions: anisomycin (1.0 ng/ml) with each bryostatin (0.25 ng/ml) exposure on three successive days
# Method: Bryostatin exposure—Specimens of Hermissenda Crassicornis were maintained in artificial sea water (ASW) at 15° for three days in perforated 50-ml conical centrifuge tubes before starting experiments. Bryostatin, purified from the marine bryozoan Bugula neritina, was dissolved in EtOH and diluted to its final concentration in ASW. Animals were incubated with bryostatin in ASW for 4 hr, then rinsed with normal ASW. For selected experiments lactacysteine (10 μM) or anisomycin was added to the ASW.
# Cells were homogenized by sonication (5 sec, 25 W) in 100 μl of 10 mM Tris-HCl pH 7.4 buffer containing 1 mM EGTA, 1 mM PMSF, and 50 mM NaF. Homogenate was transferred to a polyallomer centrifuge tube and was centrifuged at 100,000×g for 10 min at 4°. The supernatant was removed and immediately frozen on dry ice. The particulate fraction was resuspended by sonication in 100 μl of the same buffer and stored at −80°. To measure PKC, 10 μl of cytosol or particulate fraction was incubated for 15 min at 37° in the presence of 10 μM histones, 4.89 mM CaCl2, 1.2 μg/μl phosphatidyl-L-serine, 0.18 μg/μl 1,2-dioctanoyl-sn-glycerol, 10 mM MgCl2, 20 mM HEPES (pH 7.4), 0-8 mM EDTA, 4 mM EGTA, 4% glycerol, 8 μg/ml aprotinin, 8 μg/ml leupeptin, and 2 mM benzamidine. 0.5 μCi [γ^32P]ATP was added and ^32P-phosphoprotein formation was measured by adsorption onto phosphocellulose as described previously (25). This assay was used with slight adjustments for either Hermissenda nervous system homogenates or cultured mammalian neuron homogenates
# Intact Hermissenda were exposed for 4 hour intervals to bryostatin (0.28 nM) on successive days under conditions described (“Behavioral Pharmacology”). Histone phosphorylation (See “Methods”) in isolated circumesophageal nervous systems was then measured in the cytosol fraction. […] (FIG. 12, 13). […] After an initial activation (via translocation), this bryostatin effect is most likely due to increased synthesis of PKC, consistent with the increased levels of calexcitin induced by bryostatin, but not directly correlated with repeated bryostatin exposure.
# sAPP secretion = conditions: cited from earlier work
# [2] = test system: diacylglycerol-protein kinase C activation; conditions: aorta of diabetic rats; cultured rat smooth muscle cells, elevated glucose; cited from earlier work
# [3] = vitamin E 2000 IU/day; cited from earlier work
compound,measurement,setting,value
CC(=O)N[C@@H](CSC(=O)[C@]1([C@@H](O)C(C)C)NC(=O)[C@H](C)[C@@H]1O)C(=O)O [Lactacysteine],acquisition or retention of behavioral training,"Hermissenda Crassicornis; lactacysteine only 10 μM 4 h, 2-paired TEs 24 hrs later",no acquisition or retention of behavioral training
same,duration of memory after single bryostatin exposure followed by 2 TE,Hermissenda Crassicornis; with lactacysteine,many days
same,degradation of PKC-α,PKC-α,largely prevented
CN(C)C[C@H]1CCn2c(c(C3=C(c4cn(C)c5ccccc45)C(=O)NC3=O)c3ccccc32)C1 [Ro-32],effect on bryostatin memory enhancement,Hermissenda Crassicornis,blocked
same,effect on 6 TE plus bryostatin conditioning,Hermissenda Crassicornis; Ro-32 applied pre-training (during dark adaptation),blocked
same,effect on memory consolidation,Hermissenda Crassicornis; Ro-32 during the training plus bryostatin,did prevent memory consolidation
same,effect on long-term memory induction,Hermissenda Crassicornis; Ro-32 immediately after bryostatin plus training,did not prevent long-term memory induction
same,effect on learning-specific calexcitin increases in Type B cell,calexcitin; Ro-32,prevented both learning and learning-specific calexcitin increases
same,effect on bryostatin-induced increase of protein synthesis,[1],partially blocked
same,effect on bryostatin-induced increase of protein synthesis,[1]; listed as Ro-32-0432,increasing significantly less
COc1ccc(C[C@H]2NC[C@H](O)[C@H]2OC(C)=O)cc1 [anisomycin],effect on bryostatin memory enhancement,Hermissenda Crassicornis,blocked
same,effect on memory retention produced by 9 TE,"Hermissenda Crassicornis; 4 hour anisomycin treatment, no bryostatin",eliminated all memory retention
same,effect on long-term retention,Hermissenda Crassicornis,did not prevent memory retention
same,effect on long-term retention,Hermissenda Crassicornis; listed as Anisomycin,did not prevent long-term retention
same,effect on retention produced by single 4-hour bryostatin plus 2 TE,"Hermissenda Crassicornis; anisomycin 1.0 μg/ml immediately post-training, tested after 4 h",showed no CR
same,effect on memory formation,Hermissenda Crassicornis; anisomycin after training with and without bryostatin,completely blocked memory formation
same,effect on long-term memory,Hermissenda Crassicornis; anisomycin during training with and without bryostatin,did not prevent long-term memory
same,effect on long-term memory,"Hermissenda Crassicornis; anisomycin with each of three successive daily 4 hour bryostatin exposures, 2 TE one day after",long-term memory was eliminated
same,effect on calexcitin level,calexcitin; anisomycin immediately after 2-paired TEs following 3 days of 4-hr bryostatin,did not reduce this calexcitin level
same,"effect on PKC activity, cytosolic and membrane fractions",PKC,markedly reduced the PKC activity
CN[C@@H]1C[C@H]2O[C@@](C)([C@@H]1OC)n1c3ccccc3c3c4c(c5c6ccccc6n2c5c31)C(=O)NC4 [staurosporine],effect on benzolactam-induced sAPP secretion,sAPP secretion; control and AD fibroblasts,eliminated the effects of benzolactam
benzolactam,sAPP secretion,sAPP secretion; benzolactam-treated cells,enhance sAPP secretion over basal levels
same,concentration giving significant increases of sAPP secretion,sAPP secretion; control fibroblasts,10 µM
vitamin E,diacylglycerol-protein kinase C activation,[2],normalize diacylglycerol-protein kinase C activation
same,clinical outcome,[3],"reduced mortality and morbidity, but did not enhance cognitive abilities"
